Measured values: patent publication US4749701A, “Aminostyryl compound, leukotriene antagonistic composition containing the same as effective ingredients and method of antagonizing SRS by employing the same” (Mitsubishi Chemical Industries Limited, priority 1986, dated 1988)
Counter-ions that a name gives are not always drawn.

Test: Acute toxicity test
Conditions: mouse, in vivo
Description: With 4 to 5 ddy-strain male mice of 6 weeks old as one group, the compound of the present invention was orally administered as a suspension in 1% tragacanth solution, and observation was conducted for 7 days and the number of dead mice was examined to obtain the results shown in Table 3.

| SMILES | LD50 at 168 h (po) | LD50 at 168 h (oral, suspension in 1% tragacanth, male ddy mice, 6 weeks old, observed for 7 days) |
| --- | --- | --- |
| O=C(O)CCC(=O)Nc1cccc(/C=C/c2ccc3ccccc3n2)c1 [compound 32, 2-[trans-3-(3-carboxypropanamide)styryl]quinoline.sodium salt] | > 1000 mg/kg | – |
| O=C(O)C=CC(=O)Nc1cccc(C=Cc2ccc3ccccc3n2)c1 [compound 45] | – | > 1000 mg/kg |
